In PubChem BioAssay AID488867 (Broad Institute, 2010):
The source made the active and inactive calls.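 How the source made its calls: active means a rising curve with AC50 no higher than ten times the top valid dose of that compound; inconclusive means flat curve between 30 and 70 percent, or failed fit; inactive means the rest.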

Experiment: protection from cytokine-driven beta-cell apoptosis, dose response, JC-1 fluorescence, INS-1E, dry powder, set 2 (AID 488867)
Conditions: INS-1E cytokine-induced apoptosis, JC-1 mitochondrial potential, 48 h

Compound | protection from cytokine-induced depolarization (at 26 µM (top of the series)) | other results
COc1ccc(NC(=O)Nc2cccc3c2O[C@@H](CN(C)S(=O)(=O)c2ccc(OC)cc2)[C@H](C)CN([C@@H](C)CO)C3=O)cc1 | 0.556% (inactive) | 
COc1cccc(S(=O)(=O)N(C)C[C@@H]2Oc3c(NC(=O)Nc4cccc5ccccc45)cccc3C(=O)N([C@@H](C)CO)C[C@H]2C)c1 | 5.29% (inactive) | 
COc1ccc(S(=O)(=O)N(C)C[C@@H]2Oc3c(NC(=O)c4ccncc4)cccc3C(=O)N([C@@H](C)CO)C[C@H]2C)cc1 | -1.06% (inactive) | 
COc1ccc(S(=O)(=O)N(C)C[C@@H]2Oc3c(NC(=O)Nc4ccc(C(F)(F)F)cc4)cccc3C(=O)N([C@@H](C)CO)C[C@H]2C)cc1 | -7.36% (inactive) | 
N#Cc1ccc2cc(Br)c(C(F)(F)P(=O)(O)O)cc2c1 | -2.22% (inactive) | 
COc1ccc(S(=O)(=O)N(C)C[C@@H]2Oc3c(NS(=O)(=O)c4cn(C)cn4)cccc3C(=O)N([C@@H](C)CO)C[C@H]2C)cc1 | -9.04% (inactive) | 
COc1ccc(S(=O)(=O)N(C)C[C@@H]2Oc3c(NC(=O)c4cc(C)nn4C)cccc3C(=O)N([C@@H](C)CO)C[C@H]2C)cc1 | 1.8% (inactive) | 
C[C@@H]1CN([C@@H](C)CO)C(=O)c2cccc(NC(=O)Nc3ccc(F)cc3)c2O[C@H]1CN(C)S(=O)(=O)c1ccc(F)cc1 | 11.7% (inactive) | 
COc1ccc(S(=O)(=O)N(C)C[C@@H]2Oc3c(NS(=O)(=O)c4ccccc4)cccc3C(=O)N([C@@H](C)CO)C[C@H]2C)cc1 | -2.15% (inactive) | 
COc1ccc(S(=O)(=O)N(C)C[C@@H]2Oc3c(NC(=O)c4nc5ccccc5s4)cccc3C(=O)N([C@@H](C)CO)C[C@H]2C)cc1 | -8.58% (inactive) | 
COc1ccc(S(=O)(=O)N(C)C[C@@H]2Oc3c(NC(=O)Nc4cccc5ccccc45)cccc3C(=O)N([C@@H](C)CO)C[C@H]2C)cc1C | -8.34% (inactive) | 
COc1ccc(S(=O)(=O)N(C)C[C@H]2Oc3c(NC(=O)Nc4cccc5ccccc45)cccc3C(=O)N([C@H](C)CO)C[C@H]2C)cc1 | -8.55% (inactive) | 
C[C@@H]1CN([C@@H](C)CO)C(=O)c2cccc(NC(=O)Nc3cccc4ccccc34)c2O[C@H]1CN(C)S(=O)(=O)c1ccccc1F | -16.5% (inactive) | 
C[C@@H]1CN([C@@H](C)CO)C(=O)c2cccc(NC(=O)Nc3cccc4ccccc34)c2O[C@H]1CN(C)S(=O)(=O)c1ccc2c(c1)OCCO2 | 26.8% (inactive) | protection from cytokine-induced depolarization (at 12 µM (top of the series)): 29.7% (inactive)
COc1ccc(S(=O)(=O)N(C)C[C@@H]2Oc3c(NS(C)(=O)=O)cccc3C(=O)N([C@@H](C)CO)C[C@H]2C)cc1 | -7.47% (inactive) | 
COc1ccc(S(=O)(=O)N(C)C[C@@H]2Oc3c(cccc3N(C)C)C(=O)N([C@@H](C)CO)C[C@H]2C)cc1 |  | protection from cytokine-induced depolarization (at 23.5 µM (top of the series)): -4.35% (inactive)
COc1ccccc1S(=O)(=O)N(C)C[C@@H]1Oc2c(NC(=O)Nc3cccc4ccccc34)cccc2C(=O)N([C@@H](C)CO)C[C@H]1C | -3.43% (inactive) | 
C[C@@H]1CN([C@@H](C)CO)C(=O)c2cccc(NC(=O)Nc3cccc4ccccc34)c2O[C@H]1CN(C)S(=O)(=O)c1ccc(F)cc1 | 4.49% (inactive) | 
C[C@@H]1CN([C@@H](C)CO)C(=O)c2cccc(NC(=O)Nc3cccc4ccccc34)c2O[C@H]1CN(C)S(C)(=O)=O | 2.48% (inactive) | 
C[C@@H]1CN([C@@H](C)CO)C(=O)c2cccc(NC(=O)Nc3cccc4ccccc34)c2O[C@H]1CN(C)C(=O)Nc1ccc2c(c1)OCO2 | -3.61% (inactive) | 
COc1ccc(S(=O)(=O)N(C)C[C@@H]2Oc3ccc(NC(=O)Nc4cccc5ccccc45)cc3C(=O)N([C@@H](C)CO)C[C@H]2C)cc1 | -12% (inactive) | 
C[C@@H]1CN([C@H](C)CO)C(=O)c2cccc(NC(=O)Nc3cccc4ccccc34)c2O[C@H]1CN(C)S(=O)(=O)c1ccc(Cl)cc1 | 4.01% (inactive) | 
Cc1ccc(S(=O)(=O)N(C)C[C@@H]2Oc3c(NC(=O)Nc4ccc(F)cc4)cccc3C(=O)N([C@@H](C)CO)C[C@H]2C)cc1 | 10.4% (inactive) | 
C[C@@H]1CN([C@@H](C)CO)C(=O)c2cccc(NC(=O)Nc3cccc4ccccc34)c2O[C@H]1CN(C)S(=O)(=O)c1cccc(F)c1 | -9.88% (inactive) | 
Cc1noc(C)c1NC(=O)N(C)C[C@@H]1Oc2c(NC(=O)Nc3cccc4ccccc34)cccc2C(=O)N([C@@H](C)CO)C[C@H]1C | 12.1% (inactive) | 
COc1ccc(NC(=O)N(C)C[C@@H]2Oc3c(NC(=O)Nc4cccc5ccccc45)cccc3C(=O)N([C@@H](C)CO)C[C@H]2C)cc1 | 0.86% (inactive) | 
